According to US5344831A, “Diazabicyclo derivatives” (Nisshin Flour Milling Co., Ltd., priority 1992, dated 1994):
Structures can show the parent of a compound that is named as a salt.

Test system: 5-HT3 receptors
Assay: antagonism of the von Bezold-Jarisch reflex (bradycardia) induced by 5-HT in the anaesthetised rat
Format: in vivo
Settings: 5-HT 30 μg/kg given 5 min later, tested as hydrochloride salts
Method: Temporary bradycardia is induced by administration of 5-HT (serotonin) to anaesthetised rats via jugular vein (yon Bezold Jarisch Reflex) (A. S. Paintal, Physiol. Rev., 53, 159-210 (1973 ) ).
The compounds of the present invention were evaluated for antagonism of the yon Bezold-Jarisch reflex induced by 5-HT in the anaesthetised rat according to the following method.
Rats were anaesthetised with urethane (1 g/kg, intraperitoneally ) and blood pressure and heart rate recorded from left femoral artery. Percent inhibition was calculated from bradycardia induced by 5-HT (30 μg/kg ) given 5 minutes following intrajugular administration of a compound of the invent ion, taking the bradycardia induced by the intrajugular administration of 5-HT. The compounds of the present invention were tested in the form of their hydrochloride salts.

Row | SMILES | Percent Inhibition (0.01 μg/kg i.v.) [%] | Percent Inhibition (0.1 μg/kg i.v.) [%] | Percent Inhibition (1.0 μg/kg i.v.) [%] | Percent Inhibition (10 μg/kg i.v.) [%]
1 | C=CCn1nc(C(=O)N[C@@H]2C[C@@H]3CN(C)C[C@H](C2)N3C)c2ccccc21 [Example 2, endo-3,9-Dimethyl-3,9-diazabicyclo[3.3.1]non-7-yl 1-allylindazole-3-carboxamide hydrochloride] | 11 | 86 | – | –
2 | CN1C[C@H]2C[C@@H](NC(=O)c3nn(CC4CCCCC4)c4ccccc34)C[C@@H](C1)N2C [Example 3, endo-3,9-Dimethyl-3,9-diazabicyclo[3.3.1]non-7-yl 1-cyclohexylmethylindazole-3-carboxamide] | – | 13 | 70 | –
3 | CN1C[C@H]2C[C@@H](NC(=O)c3nn(CC4CC4)c4ccccc34)C[C@@H](C1)N2C [Example 4] | – | 60 | – | –
4 | COc1ccc(Cn2nc(C(=O)N[C@@H]3C[C@@H]4CN(C)C[C@H](C3)N4C)c3ccccc32)cc1 [Example 5] | – | 29 | 44 | 91
5 | C=CCCCCCCn1nc(C(=O)N[C@@H]2C[C@@H]3CN(C)C[C@H](C2)N3C)c2ccccc21 [Example 6, endo-3,9-Dimethyl-3,9-diazabicyclo[3.3.1]non-7-yl 1-(7octenyl) indazole-3-carboxamide] | – | 19 | 35 | 87
6 | C#CCn1nc(C(=O)N[C@@H]2C[C@@H]3CN(C)C[C@H](C2)N3C)c2ccccc21 [Example 7, endo-3,9-Dimethyl-3,9-diazabicyclo[3.3-1]non-7-Yl 1-(2propynyl) indazole-3-carboxamide] | – | 30 | 83 | –
7 | CC(C)=CCn1nc(C(=O)N[C@@H]2C[C@@H]3CN(C)C[C@H](C2)N3C)c2ccccc21 [Example 8, endo-3,9-Dimethyl-3,9-diazabicyclo[3.3.1]non-7-yl 1-(3-methyl-2-butenyl) indazole-3-carboxamide] | – | 48 | 100 | –
8 | CN1C[C@H]2C[C@@H](NC(=O)c3nn(Cc4ccc([N+](=O)[O-])cc4)c4ccccc34)C[C@@H](C1)N2C [Example 9, endo-3,9-Dimethyl-3,9-diazabicyclo[3.3.1]non-7-yl 1-(4nitrobenzyl) indazole-3-carboxamide] | 14 | 41 | 96 | –
9 | CN1C[C@H]2C[C@@H](NC(=O)c3nn(CC#N)c4ccccc34)C[C@@H](C1)N2C [Example 10, endo-3,9-Dimethyl-3,9-diazabicyclo[3.3.1]non-7-yl 1-cyanomethylindazole-3-carboxamide] | – | 37 | 100 | –
10 | CN1C[C@H]2C[C@@H](NC(=O)c3nn(Cc4ccc(C(C)(C)C)cc4)c4ccccc34)C[C@@H](C1)N2C [Example 11, endo-3,9-Dimethyl-3,9-diazabicyclo[3.3.1]non-7-yl 1-(4-tert-butylbenzyl) indazole-3-carboxamide] | – | 39 | 53 | –
11 | CC(=O)Cn1nc(C(=O)N[C@@H]2C[C@@H]3CN(C)C[C@H](C2)N3C)c2ccccc21 [Example 12, endo-3,9-Dimethyl-3,9-diazabicyclo[3.3.1]non-7-yl 1-(2-oxopropyl) indazole-3-carboxamide] | 45 | 57 | 72 | –
12 | CN1C[C@H]2C[C@@H](NC(=O)c3nn(Cc4cccc(Cl)c4)c4ccccc34)C[C@@H](C1)N2C [Example 13, endo-3,9-Dimethyl-3,9-diazabicyclo[3.3.1]non-7-yl 1-(3-chlorobenzyl)indazole-3-carboxamide] | – | 27 | 71 | –
13 | CN1C[C@H]2C[C@@H](NC(=O)c3nn(Cc4ccccc4[N+](=O)[O-])c4ccccc34)C[C@@H](C1)N2C [Example 14, endo-3,9-Dimethyl-3,9-diazabicyclo[3.3.1]non-7-yl 1-(2-nitrobenzyl) indazole-3-carboxamide] | – | 18 | 97 | –
14 | CN1C[C@H]2C[C@@H](NC(=O)c3nn(Cc4ccccn4)c4ccccc34)C[C@@H](C1)N2C [Example 15, endo-3,9-Dimethyl-3,9-diazabicyclo[3.3.1]non-7-yl 1-(2-pyridylmethyl) indazole-3-carboxamide] | – | 47 | – | –
15 | COC(=O)Cn1nc(C(=O)N[C@@H]2C[C@@H]3CN(C)C[C@H](C2)N3C)c2ccccc21 [Example 16, endo-3,9-Dimethyl-3,9-diazabicyclo[3.3.1]non-7-yl 1-methoxycarbonylmethylindazole-3-carboxamide] | – | 34 | – | 88
16 | CCOCCn1nc(C(=O)N[C@@H]2C[C@@H]3CN(C)C[C@H](C2)N3C)c2ccccc21 [Example 17, endo-3,9-Dimethyl-3,9-diazabicyclo[3.3.1]non-7-yl 1-ethoxyethylindazole-3-carboxamide] | 33 | 53 | – | –
17 | CC(C)COC(=O)n1nc(C(=O)N[C@@H]2C[C@@H]3CN(C)C[C@H](C2)N3C)c2ccccc21 [Example 18, endo-3,9-Dimethyl-3,9-diazabicyclo[3.3.1]non-7-yl 1-isobutoxycarbonylindazole-3-carboxamide] | – | 23 | 53 | –
18 | CC(O)Cn1nc(C(=O)N[C@@H]2C[C@@H]3CN(C)C[C@H](C2)N3C)c2ccccc21 (stereo partly drawn) [Example 19, endo-3,9-Dimethyl-3,9-diazabicyclo[3.3.1]non-7-yl 1-(2hydroxypropyl) indazole-3-carboxamide] | 40 | 59 | – | –
19 | CN1C[C@H]2C[C@@H](NC(=O)c3nn(Cc4ccc(N)cc4)c4ccccc34)C[C@@H](C1)N2C [Example 20, endo-3,9-Dimethyl-3,9-diazabicyclo[3.3.1]non-7-yl 1-(4aminobenzyl) indazole-3-carboxamide] | 51 | 73 | – | –
20 | CN1C[C@H]2C[C@@H](NC(=O)c3nn(Cc4nc(N)nc(N)n4)c4ccccc34)C[C@@H](C1)N2C [Example 21] | 21 | 38 | 85 | –
21 | CN1[C@@H]2C[C@@H](NC(=O)c3n[nH]c4ccccc34)C[C@H]1CN(Cc1ccccc1)C2 [Example 22, endo-3-Benzyl-9-methyl-3,9-diazabicyclo[3.3.1]non-7-yl 1H-indazole-3-carboxamide] | – | 48 | 87 | –
22 | CN1[C@@H]2CNC[C@H]1C[C@@H](NC(=O)c1n[nH]c3ccccc13)C2 [Example 23, endo-9-Methyl-3,9-diazabicyclo[3.3.1]non-7-yl 1H-indazole-3-carboxamide] | – | 28 | 82 | –
